Measured values published in patent US9051351B2, “Hepatocyte growth factor mimics as therapeutic agents” (Washington State University, priority 2011, dated 2015).
“Also recorded” adds a separate entry of the source. Where a SMILES comes first, the peptide text is derived from it. [ ]: non-standard residue; d: D form. dNle = CCCC[C@@H](N)C(=O)O; Ahx = NCCCCCC(=O)O

Tests used:
human HGF = target: T1, human HGF (Homo sapiens, UniProt P14210); test: HGF dimerization (PAGE, silver staining); assay type: biochemical; settings: analog 10^−10 M, heparin, 30 minute incubation
T1 construct: purchased R&D Systems (Minneapolis, Minn.)
T1 sequence (P14210 32-728): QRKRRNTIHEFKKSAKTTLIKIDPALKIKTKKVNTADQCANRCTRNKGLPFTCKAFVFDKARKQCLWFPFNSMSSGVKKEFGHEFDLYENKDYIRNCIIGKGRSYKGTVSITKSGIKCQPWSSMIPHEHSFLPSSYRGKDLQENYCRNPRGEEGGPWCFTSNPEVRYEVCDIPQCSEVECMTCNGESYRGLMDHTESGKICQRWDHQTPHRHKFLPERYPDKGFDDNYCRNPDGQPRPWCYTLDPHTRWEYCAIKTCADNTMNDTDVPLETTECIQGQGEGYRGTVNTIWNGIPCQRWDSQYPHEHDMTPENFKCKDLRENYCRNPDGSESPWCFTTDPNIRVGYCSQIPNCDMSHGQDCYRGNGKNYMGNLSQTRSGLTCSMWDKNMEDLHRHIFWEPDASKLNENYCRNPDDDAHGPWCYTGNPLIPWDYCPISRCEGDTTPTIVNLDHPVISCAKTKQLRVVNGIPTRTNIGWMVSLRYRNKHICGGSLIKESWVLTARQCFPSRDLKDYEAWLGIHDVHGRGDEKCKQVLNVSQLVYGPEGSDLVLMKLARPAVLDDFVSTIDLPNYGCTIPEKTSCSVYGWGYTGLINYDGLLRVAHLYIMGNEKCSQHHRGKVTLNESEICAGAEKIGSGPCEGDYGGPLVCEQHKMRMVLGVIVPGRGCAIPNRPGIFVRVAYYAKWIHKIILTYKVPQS
Description: HGF dimerization was assessed using PAGE followed by silver staining (Kawas et al., 2011). Human HGF at a concentration of 0.08 ng/μl with or without 6-AH analogs was incubated with heparin at a final concentration of 5 μg/ml. Loading buffer was then added to each sample and the mixture separated by native PAGE using gradient Criterion XT precast gels (4-12% Bis-Tris; Biorad Laboratories, Hercules, Calif.). Next the gel was silver stained for the detection of the HGF monomers and dimers. Bands were quantitated from digital images using a UVP phosphoimager (Upland, Calif.).

MDCK cells [1] = test: HGF-dependent MDCK cell proliferation (MTT); assay type: cell-based, canine; settings: analog 10^−10M, HGF 10 ng/ml, 4 days
Description: 5000 MDCK cells were seeded into the wells of a 96 well plates in 10% FBS DMEM. To induce cellular quiescence, the cells were serum deprived for 24 h prior to initiating the treatments. Following serum starvation, 10 ng/ml HGF alone and with various concentrations of 6-AH analogs or PBS vehicle were added to the media. The cells were allowed to grow under these conditions for 4 days with a daily addition of 6-AH analogs. On the fourth day, 1 mg/ml of […] (MTT, Sigma-Aldrich) prepared in PBS was added to the cells and incubated for 4 h. Dimethyl sulfoxide diluted in a 0.01M glycine buffer was added to solubilize the cell membranes and the absorbance of reduced MTT in the buffer was quantitated at 590 nm using a plate reader (Biotek Synergy 2, Winooski, Vt.). HGF-dependent proliferation was determined by subtracting the basal proliferation (in the absence of HGF) from total proliferation rates in groups containing HGF.

[2] = Blood stability in heparinized rat blood; assay type: in vitro ADME; settings: 37° C.; single phase exponential decay
Description: At the end of each incubation, 20 μL of […]

[3] = rat, in vivo, iv, 24 mg/kg
Description: Male Sprague-Dawley rats (250+ g) were allowed food (Harlan Teklad rodent diet) and water ad libitum in our AAALAC certified animal facility. Rats were housed in temperature-controlled rooms with a 12 h light/dark cycle. The right jugular veins of the rats were catheterized with sterile polyurethane Hydrocoat™ catheters (Access Technologies, Skokie, Ill., USA) under ketamine (Fort Dodge Animal Health, Fort Dodge, Iowa, USA) and isoflurane (Vet One™, MWI, Meridian, Id., USA) anesthesia. The catheters were exteriorized through the dorsal skin. The catheters were flushed with heparinized saline before and after blood sample collection and filled with heparin-glycerol locking solution (6 mL glycerol, 3 mL saline, 0.5 mL gentamycin (100 mg/mL), 0.5 mL heparin (10,000 u/mL)) when not used for more than 8 h. The animals were allowed to recover from surgery for several days before use in any experiment, and were fasted overnight prior to the pharmacokinetic experiment. […]
Pharmacokinetic analysis was performed using data from individual rats. The mean and standard deviation (SD) were calculated for the group. Noncompartmental pharmacokinetic parameters were calculated from serum drug concentration-time profiles by use of WinNonlin® software (Pharsight, Mountain View, Calif., USA).

[4] = test system: B16-F10 murine melanoma cells; test: B16-F10 melanoma lung colony formation; assay type: in vivo, mouse; settings: C57BL/6 mice; daily IP 10 μg/kg/day or 100 μg/kg/day, 14 days
Description: Six to eight month old C57BL/6 mice were injected with 400,000 B16-F10 cells in 200 μl PBS by tail vein injection and subsequently received daily intraperitoneal injections of either D-Nle-X-Cys-NH—(CH2)5—CONH2 (10 μg/kg and 100 μg/kg) or a PBS vehicle control. Two weeks later, mice were anesthetized and lungs were perfused with PBS and removed. Photos were taken and lungs were solubilized in 1% Triton x-100, 20 mM Tris, 0.15 M NaCl, 2 mM EDTA, and 0.02% sodium azide. Samples were disrupted by sonication (Mixonix, Farmingdale, N.Y.) and spun. The supernatant was transferred to a 96 well plate and melanin absorbance at […] was measured using a plate reader.

hippocampal neurons [5] = test: Dendritic spine counts (spinogenesis) in mRFP-β-actin transfected dissociated hippocampal neurons; assay type: cell-based, rat
Description: Hippocampal neurons (2×10^5 cells per square cm) were cultured from P1 Sprague Dawley rats on plates coated with poly-L-lysine from Sigma (St. Louis, Mo.; molecular weight 300,000). […] Each experiment was repeated at least three times using independent culture preparations. […] Hippocampal neurons (2×10^5 cells per square centimeter) were cultured from P1-2 Sprague Dawley rats on plates coated with poly-L-lysine from Sigma (St. Louis, Mo.; molecular weight 300,000). Hippocampal neurons were maintained in Neurobasal A media from Invitrogen (Carlsbad, Calif.) supplemented with B27 from Invitrogen, 0.5 mM L-glutamine, and […] cytosine-D-arabinofuranoside from Sigma added at 2 days in vitro. Hippocampal neurons were then cultured a further 3-7 days, at which time they were either transfected or treated with various pharmacological reagents as described in the text or figure legends. Neurons were transfected with mRFP-β-actin on day in vitro 6 […] using LipofectAMINETM 2000 (Invitrogen) according to the manufacturer's protocol. […] On DIV7 the cells were treated with vehicle (H20) or peptides (as described in the text) added to media. […] Five 50 μm long segments of dendrite from at least 10 neurons per data point were analyzed for each data point reported. Each experiment was repeated at least three times using independent culture preparations. […] A target sequence for c-Met was designed using RNAi central design program (see the website located at […].edu/). The target sequence […] NO: 2) was inserted into pSUPER vector (Oligoengine, Seattle Wash.) which drives endogenous production of shRNA under the H1 promoter. The shRNA was transfected into cells using the lipofectamine method described above. Verification of receptor knockdown was done by creating a c-[…]-Myc tagged gene product using the Gateway cloning system (Invitrogen). The Met protein coding sequence was cloned from rat whole brain cDNA using primers obtained from Integrated DNA Technologies, Inc. The amplified product was gel purified and a band corresponding to 190 kDa band excised and cloned into a […] destination vector (Gateway). Hippocampal neurons (2×10^5 cells per square cm) were cultured from P1 Sprague Dawley rats on plates coated with poly-L-lysine from Sigma (St. Louis, Mo.; molecular weight […]).

MDCK cells [6] = test: Inhibition of HGF-dependent scattering in MDCK cells; assay type: cell-based, canine
Description: (§1) MDCK cells were grown to 100% confluency on the coverslips in six-well plates and washed twice with PBS. The confluent coverslips were then aseptically transferred to new six well plates containing 900 μl serum free DMEM. Norleual, Hinge peptide, and/or HGF (20 ng/ml) were added to appropriate wells. Control wells received PBS vehicle. Plates were incubated at 37° C. with 5% CO2 for 48 hours. Media was removed and cells were fixed with methanol. Cells were stained with Diff-Quik Wright-Giemsa (Dade-Behring, Newark, Del.) and digital images were taken. Coverslips were removed with forceps and more digital images were captured. Pixel quantification of images was achieved using Image J and statistics were performed using Prism 5 and InStat v.3.05.
as §1, with “h.” for “hours.”, “Cells were stained with Diff-Quik Wright-Giemsa (Dade-Behring, Newark, Del.) and digital images were taken. Coverslips were removed with forceps and more digital images were captured.” left out, “v.3.05 (GraphPad; San Diego, Calif.).” for “v.3.05.”

scopolamine treated rats = test: Morris water maze, scopolamine amnesia model; assay type: in vivo, rat; settings: for mean latency to find the pedestal: icv, Dihexa, Hinge 300 pmol, scopolamine 70 nmol
Description: Swim speed was determined from these values.

hippocampal neurons [7] = test: Whole-cell recordings of mEPSCs in dissociated hippocampal neurons; assay type: cell-based, rat; settings: Dihexa, Hinge 10^−12 M; HGF 10 ng/ml; 5 days

| Compound | inhibition of HGF dimerization (human HGF) | inhibition of HGF dimerization (human HGF; listed as Tyr) | inhibition of HGF-dependent MDCK cell proliferation (MDCK cells [1]) | stability t1/2 in heparinized rat blood [2] [h] | Cp^0 [3] [ng/mL] | KE [3] [min⁻¹] | inhibition of HGF dimerization (human HGF; listed as Cys) | B16-F10 melanoma lung colonization [4] | inhibition of HGF-, Nle1-AngIV- and Dihexa-induced spinogenesis by Hinge (hippocampal neurons [5]; Hinge 10^−12 M, HGF 10 ng/ml, Nle1-AngIV or Dihexa 10^−12 M) | effect of Hinge alone on spinogenesis (hippocampal neurons [5]; wide range of doses) | inhibition of MDCK cell scattering by Hinge (MDCK cells [6]) | mean latency to find the pedestal (scopolamine treated rats; day one of training) [s] | mean latency to find the pedestal (scopolamine treated rats; final day of training (day 8)) [s] | mean latency to find the pedestal (scopolamine treated rats; fourth day of training) [s] | latency to escape, Morris water maze (FIG. 21) (scopolamine treated rats; i.c.v. injections, 8 days of training) | mean frequency of mEPSCs (hippocampal neurons [7]) |
| --- | --- | --- | --- | --- | --- | --- | --- | --- | --- | --- | --- | --- | --- | --- | --- | --- |
| CCCC[C@@H](N)C(=O)N[C@@H](Cc1ccc(O)cc1)C(=O)N[C@H](C(=O)NCCCCCC(N)=O)[C@@H](C)CC (H-[dNle]YI[Ahx]-NH2) | completely block HGF dimer formation | statistically different than the HGF treated group | marked inhibitory activity | 1.333 | 68.2 ± 32.2 | 0.001 ± 0.0002 |  |  |  |  |  |  |  |  |  |  |
| CCCC[C@@H](N)C(=O)N[C@@H](CS)C(=O)N[C@H](C(=O)NCCCCCC(N)=O)[C@@H](C)CC [D-Nle-Cys-Ile-NH—(CH2)5—CONH2] (H-[dNle]CI[Ahx]-NH2) | completely block HGF dimer formation |  | marked inhibitory activity |  |  |  | statistically different than the HGF treated group | suppressed pulmonary colonization; also recorded: radically prevented lung colonization; also recorded: obvious reduction in melanoma colonies |  |  |  |  |  |  |  |  |
| Hinge: novel HGF antagonist Hinge (DYIRNC, SEQ ID NO: 3); elsewhere Hinge peptide (KDYIRN), the dimerization domain of HGF (Synthetic hinge peptide) [reference compound] |  |  |  |  |  |  |  |  | effectively inhibit spine formation; also recorded: inhibits HGF-induced spinogenesis; also recorded: inhibits Nle1-AngIV-induced spinogenesis; also recorded: inhibits Dihexa-induced spinogenesis | no effect on spinogenesis over a wide range of doses; also recorded: does not affect spinogenesis | inhibit scattering of Madin-Darby canine kidney (MDCK) cells | 111.1 | 46.1 | 78.3 | no effect on learning | 4.51±0.47 |
